Reference: article PMC4207410, “Clicked Cinnamic/Caffeic Esters and Amides as Radical Scavengers and 5-Lipoxygenase Inhibitors” (International Journal of Medicinal Chemistry, 2014)

Legend:
5-LO [1] = biological target: T1, 5-LO (Homo sapiens, UniProt P09917); assay: 5-LO products biosynthesis assay in thapsigargin-stimulated human PMNL; format: cell-based; design: 5-LO is highly expressed in PMNL; endogenous in cells; host or cells: human PMNL from peripheral blood; conditions: stimulated human PMNL, 1 μM
T1 sequence (P09917 1-674): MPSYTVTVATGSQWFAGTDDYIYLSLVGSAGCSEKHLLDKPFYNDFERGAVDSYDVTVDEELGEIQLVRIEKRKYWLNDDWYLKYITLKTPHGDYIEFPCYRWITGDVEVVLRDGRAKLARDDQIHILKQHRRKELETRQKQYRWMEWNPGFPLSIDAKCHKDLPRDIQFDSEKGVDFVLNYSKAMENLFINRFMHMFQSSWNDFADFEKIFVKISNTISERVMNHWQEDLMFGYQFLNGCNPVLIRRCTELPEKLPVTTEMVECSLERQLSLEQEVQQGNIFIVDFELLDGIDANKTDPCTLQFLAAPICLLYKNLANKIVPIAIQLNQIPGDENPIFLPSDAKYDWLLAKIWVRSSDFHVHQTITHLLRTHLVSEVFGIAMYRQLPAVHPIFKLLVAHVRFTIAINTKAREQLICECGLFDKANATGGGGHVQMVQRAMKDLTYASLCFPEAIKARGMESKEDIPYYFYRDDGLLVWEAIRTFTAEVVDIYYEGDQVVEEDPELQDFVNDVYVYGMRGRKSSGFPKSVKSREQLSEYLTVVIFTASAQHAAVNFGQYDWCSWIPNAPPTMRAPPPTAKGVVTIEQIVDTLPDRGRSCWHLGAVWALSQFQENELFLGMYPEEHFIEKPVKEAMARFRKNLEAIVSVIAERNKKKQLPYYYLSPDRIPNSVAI
Protocol: Human PMNL were prepared from peripheral blood as described and were suspended in HBSS containing 1.6 mM CaCl2 (10^7 cells/mL) and preincubated with compounds for 5 min at 37°C in the presence of 1 U/mL of adenosine deaminase (Sigma-Aldrich, Oakville, ON, Canada). Cells were then stimulated for 15 min at 37°C with 1 μM thapsigargin (Sigma-Aldrich). Reactions were stopped by the addition of 0.5 volume of cold MeOH : CH3CN (1 : 1) and 50 ng of PGB2 as internal standard and samples were stored at −20°C until processing on octadecyl (C18) columns and RP-HPLC analysis as indicated above. Data are expressed as means ± SEM of 3 independent experiments, each performed in duplicate (Figures 4 and 5).
5-LO is highly expressed in PMNL and these cells are important producers of LTB4 [28, 32].

[2] = Antiradical activity assay (DPPH radical scavenging); conditions: DPPH in ethanol, 30 min in the dark at room temperature, absorbance 520 nm; mean [SD] of 2 experiments
Protocol: The radical scavenging activity of test compounds was measured as previously described using 2,2-diphenyl-1-picrylhydrazyl (DPPH) as a stable radical with slight modifications. Particular care was taken in the preparation of the control (DPPH reagent + ethanol as a diluent without test compounds). Controls with O.D. of 0.350-0.360 at 520 nm were deemed as acceptable to avoid variations in IC50 calculations. 1 mL of DPPH in ethanol ([…]) was mixed with 1 mL of the test compounds at the indicated concentrations or their diluent (ethanol). Each mixture was then shaken vigorously and held in the dark for 30 min at room temperature. The absorbance of DPPH at 520 nm was then measured. The radical scavenging activity was expressed in terms of % inhibition of DPPH absorbance: (1) % Inhibition=[(Acontrol−Atest)/(Acontrol)] ×100, where A control is the absorbance of the control (DPPH solution without test compound) and A test is the absorbance of the test sample (DPPH solution plus compound). Data are expressed as means ± SD of 2 independent experiments, each performed in triplicate (Table 1). IC50 values were calculated from a sigmoidal concentration-response curve fitting model with a variable slope on GraphPad Prism 5 software (GraphPad software, San Diego, California).
Radical scavenging activities of analogous cinnamoyl esters 8a–h, cinnamoyl amides 9a–h, caffeoyl esters 15a–h, and caffeoyl amides 16a–h were assayed using 2,2-diphenyl-1-picrylhydrazyl (DPPH) as a stable radical and are expressed as IC50 concentrations in Table 1.

5-LO [3] = biological target: T1, 5-LO; design: expressed in transfected cells; method as in PMID 19152786; conditions: 10 μM; cited from earlier work
5-LO [4] = biological target: T1, 5-LO; assay: 5-LO products biosynthesis assay in whole HEK293 cells stably transfected with 5-LO and FLAP; format: cell-based; design: expressed in transfected cells; conditions: whole HEK293 cells, 1 μM
From the text: HEK293 cells were cotransfected with a pcDNA3.1 vector expressing 5-LO and a pBUDCE4.1 vector expressing 5-LO activating protein (FLAP) using Polyfect reagent (QIAGEN, Mississauga, ON, Canada) according to the manufacturer's protocol. Stable transfections of HEK293 cells were obtained following cell culture in the presence of Geneticin and Zeocin (Invitrogen, Burlington, ON, Canada). The resulting stable double transfectants were propagated in culture and aliquots were frozen. Once thawed for a series of experiments, each aliquot of cells is cultured for a maximum of 6 weeks before being discarded.
For cell stimulation of 5-LO products, transfected HEK293 cells were collected following trypsinization, washed and the cell pellet was resuspended in Hank's balanced salt solution (HBSS) (Lonza, Walkersville, MD) containing 1.6 mM CaCl2 at a concentration of 5 × 10^5 cells mL^−1. Cells were preincubated with each compound at the indicated concentration for 5 min at 37°C. Cells were then stimulated for 15 minutes at 37°C with the addition of 10 μM calcium ionophore A23187 (Sigma-Aldrich, Oakville, ON, Canada) and 10 μM arachidonic acid (Cayman Chemical, Ann Arbor, MI). Stimulations were stopped and processed on RP-HPLC as described previously. Data are expressed as means ± SEM of 3 independent experiments, each performed in duplicate (Figures 2 and 3).

## O=C(/C=C/c1ccccc1)OCCn1cc(COC(=O)/C=C/c2ccc(O)c(O)c2)nn1 [compound 4, reference compound]
5-LO [1]
  5-LO inhibition in stimulated human PMNL (in words): roughly equipotent with Zileuton
[2]
  IC50: 13.4 µM
5-LO [3]
  5-LO inhibition in whole cells: near complete 5-LO inhibition
5-LO [4]
  5-LO inhibition in whole HEK293 cells (in words): not significantly different than the control
